Results from PMC11995216, “End-to-End Backbone Cyclization Enhances Passive Permeability of bRo5 Oligomeric Depsipeptides with Nonlinear Size Dependence” (ACS Medicinal Chemistry Letters, 2025).
“And” between values parts separate entries of the source, which are not always exact repeats. Equal values may be shown once. Read-outs that look alike come from different tables or passages of the source.

Experiments:
[1] = calculated using Supplement Equation 1, UV detection
PAMPA [2] = settings: UV detection
[3] = UV detection
PAMPA [4] = settings: UV detection, initial concentration 500 uM
[5] = PAMPA, 500 uM
in vitro = settings: PAMPA
[6] = initial concentration 500 uM, UV detection
[7] = initial concentration 500 uM, UV detection; remark: listed apart in the source

For `CCCCC[C@H](NC(=O)[C@@H](C)N(C)C(=O)OC(C)(C)C)C(=O)N(C)[C@H](C)C(=O)N[C@H](CCCCC)C(=O)N(C)[C@H](C)C(=O)O[C@@H](CCCCC)C(=O)N(C)[C@H](C)C(=O)O[C@@H](CCCCC)C(=O)OCc1ccccc1` (stereo in doubt) [Compound L2.2], the %T ([1]; Well 1 / %T, Well 1) was 0.34% and 0.4%, the %T ([1]; Well 2 / %T, Well 2) was 0.4% and the %T ([1]; Well 3 / %T, Well 3) was 0.36% and 0.39%. The %T ([1]; Well 4 / %T, Well 4) was 0.36% and 0.38%, the %T ([1]; Well 5 / %T, Well 5) was 0.38% and 0.4% and the Papp (PAMPA [2]; Papp (x 10^-6 cm/s) / [row 1]) was 27 nm/s. It also gave a Papp (PAMPA [2]; Papp (x 10^-6 cm/s) / [row 2]) of 28.6 nm/s, a Papp (PAMPA [2]; Papp (x 10^-6 cm/s) / [row 3]) of 32 nm/s and a Papp (PAMPA [2]; Papp (x 10^-6 cm/s) / [row 4]) of 29.1 nm/s. The Papp (PAMPA [2]; Papp (x 10^-6 cm/s) / [row 5]) was 25.4 nm/s, the Papp (PAMPA [2]; Papp (x 10^-6 cm/s) / [row 6]) was 27.8 nm/s and the Papp (PAMPA [2]; Papp (x 10^-6 cm/s) / [row 7]) was 28 nm/s. The Papp (PAMPA [2]; Papp (x 10^-6 cm/s) / [row 8]) was 25.5 nm/s, the Papp (PAMPA [2]; Papp (x 10^-6 cm/s) / [row 9]) was 29 nm/s and the Papp (PAMPA [2]; Papp (x 10^-6 cm/s) / [row 10]) was 26.8 nm/s. For the same molecule, the % recovery ([3]; Well 1 / %R, Well 1) was 95%, the % recovery ([3]; Well 2 / %R, Well 2) was 91% and 89% and the % recovery ([3]; Well 3 / %R, Well 3) was 91%. For the same molecule, the % recovery ([3]; Well 4 / %R, Well 4) was 98% and 90%, the % recovery ([3]; Well 5 / %R, Well 5) was 89% and the Acceptor Concentration (PAMPA [4]; Acceptor Concentration (uM) / [row 1]) was 68.3 µM. For the same molecule, the Acceptor Concentration (PAMPA [4]; Acceptor Concentration (uM) / [row 2]) was 68.9 µM, the Acceptor Concentration (PAMPA [4]; Acceptor Concentration (uM) / [row 3]) was 76.7 µM and the Acceptor Concentration (PAMPA [4]; Acceptor Concentration (uM) / [row 4]) was 75.8 µM. It also gave an Acceptor Concentration (PAMPA [4]; Acceptor Concentration (uM) / [row 5]) of 62.9 µM, an Acceptor Concentration (PAMPA [4]; Acceptor Concentration (uM) / [row 6]) of 70.1 µM and an Acceptor Concentration (PAMPA [4]; Acceptor Concentration (uM) / [row 7]) of 66.3 µM. It also gave an Acceptor Concentration (PAMPA [4]; Acceptor Concentration (uM) / [row 8]) of 62.1 µM, an Acceptor Concentration (PAMPA [4]; Acceptor Concentration (uM) / [row 9]) of 69 µM and an Acceptor Concentration (PAMPA [4]; Acceptor Concentration (uM) / [row 10]) of 63.9 µM. The LogPapp [5] was -5.55 ± 0.03, the Δ % diffusion [5] was “↑17%” and the Papp at 500 uM (in vitro; Papp) was 27.9 ± 1.9 nm/s. For the same molecule, the donor concentration after incubation ([6]; Well 1 / [donor], Well 1) was 406 µM and 404 µM, the donor concentration after incubation ([6]; Well 2 / [donor], Well 2) was 384 µM and 380 µM and the donor concentration after incubation ([6]; Well 3 / [donor], Well 3) was 381 µM and 392 µM. For the same molecule, the donor concentration after incubation ([6]; Well 4 / [donor], Well 4) was 416 µM and 380 µM, the donor concentration after incubation ([6]; Well 5 / [donor], Well 5) was 398 µM and 382 µM and the acceptor concentration after incubation ([7]; Well 1 / [acc], Well 1) was 70.2 µM.
With `CCCCC[C@H](OC(=O)[C@@H](C)N(C)C(=O)[C@H](CCCCC)OC(=O)[C@@H](C)N(C)C(=O)OC(C)(C)C)C(=O)OCc1ccccc1` [Compound L1.2] the %T ([1]; Well 1 / %T, Well 1) was 0.43% and 0.47%, the %T ([1]; Well 2 / %T, Well 2) was 0.48% and 0.46% and the %T ([1]; Well 3 / %T, Well 3) was 0.48% and 0.47%. The %T ([1]; Well 4 / %T, Well 4) was 0.48% and 0.49%, the %T ([1]; Well 5 / %T, Well 5) was 0.5% and 0.49% and the Papp (PAMPA [2]; Papp (x 10^-6 cm/s) / experiment 1) was 32 nm/s. The Papp (PAMPA [2]; Papp (x 10^-6 cm/s) / experiment 2) was 38 nm/s, the Papp (PAMPA [2]; Papp (x 10^-6 cm/s) / experiment 3) was 38 nm/s and the Papp (PAMPA [2]; Papp (x 10^-6 cm/s) / experiment 4) was 37 nm/s. The Papp (PAMPA [2]; Papp (x 10^-6 cm/s) / experiment 5) was 39 nm/s, the Papp (PAMPA [2]; Papp (x 10^-6 cm/s) / experiment 6) was 34 nm/s and the Papp (PAMPA [2]; Papp (x 10^-6 cm/s) / experiment 7) was 39 nm/s. For the same molecule, the Papp (PAMPA [2]; Papp (x 10^-6 cm/s) / experiment 8) was 33 nm/s, the Papp (PAMPA [2]; Papp (x 10^-6 cm/s) / experiment 9) was 37 nm/s and the Papp (PAMPA [2]; Papp (x 10^-6 cm/s) / experiment 10) was 36 nm/s. For the same molecule, the % recovery ([3]; Well 1 / %R, Well 1) was 93%, the % recovery ([3]; Well 2 / %R, Well 2) was 96% and the % recovery ([3]; Well 3 / %R, Well 3) was 85% and 90%. For the same molecule, the % recovery ([3]; Well 4 / %R, Well 4) was 84% and 85%, the % recovery ([3]; Well 5 / %R, Well 5) was 82% and the Acceptor Concentration (PAMPA [4]; Acceptor Concentration (uM) / experiment 1) was 72 µM. For the same molecule, the Acceptor Concentration (PAMPA [4]; Acceptor Concentration (uM) / experiment 2) was 80.6 µM, the Acceptor Concentration (PAMPA [4]; Acceptor Concentration (uM) / experiment 3) was 77.4 µM and the Acceptor Concentration (PAMPA [4]; Acceptor Concentration (uM) / experiment 4) was 75.2 µM. For the same molecule, the Acceptor Concentration (PAMPA [4]; Acceptor Concentration (uM) / experiment 5) was 77.1 µM, the Acceptor Concentration (PAMPA [4]; Acceptor Concentration (uM) / experiment 6) was 90.3 µM and the Acceptor Concentration (PAMPA [4]; Acceptor Concentration (uM) / experiment 7) was 86.9 µM. For the same molecule, the Acceptor Concentration (PAMPA [4]; Acceptor Concentration (uM) / experiment 8) was 80.4 µM, the Acceptor Concentration (PAMPA [4]; Acceptor Concentration (uM) / experiment 9) was 87.3 µM and the Acceptor Concentration (PAMPA [4]; Acceptor Concentration (uM) / experiment 10) was 83.7 µM. For the same molecule, the Δ % diffusion [5] was “↑5%”, the Papp at 500 uM (in vitro; LogPapp) was 18.2 nm/s and the Papp at 500 uM (in vitro; Papp) was 34.4 ± 3.3 nm/s. For the same molecule, the donor concentration after incubation ([6]; Well 1 / [donor], Well 1, standard curve) was 391 µM and 364 µM, the donor concentration after incubation ([6]; Well 2 / [donor], Well 2, standard curve) was 361 µM and 396 µM and the donor concentration after incubation ([6]; Well 3 / [donor], Well 3, standard curve) was 348 µM and 368 µM. The donor concentration after incubation ([6]; Well 4 / [donor], Well 4, standard curve) was 345 µM and 348 µM, the donor concentration after incubation ([6]; Well 5 / [donor], Well 5, standard curve) was 331 µM and 358 µM and the acceptor concentration after incubation ([7]; Well 1 / [acc], Well 1, standard curve) was 77 µM. For the same molecule, the acceptor concentration after incubation ([7]; Well 2 / [acc], Well 2, standard curve) was 81.5 µM, the acceptor concentration after incubation ([7]; Well 3 / [acc], Well 3, standard curve) was 79.5 µM and the acceptor concentration after incubation ([7]; Well 4 / [acc], Well 4, standard curve) was 78.8 µM. The acceptor concentration after incubation ([7]; Well 5 / [acc], Well 5, standard curve) was 81.8 µM.
